Patent US4610983A, “N-acyl acidic amino acid diamide derivative, a salt thereof, and an anti-ulcer agent containing the same” (Toyama Chemical Co., Ltd., priority 1984, dated 1986)

system: Wistar strain rats; test: Anti-ulcer activity, Indomethacin-induced ulcers, intraperitoneal (inhibition percentage); format: in vivo, Wistar strain rats (male); conditions: 50 mg/kg intraperitoneal; 1 h before Indomethacin 25 mg/kg p.o.; ulcer lengths after 5 h
Protocol: On the other hand, Indomethacin alone was orally administered to a control group at the same dose. After 5 hours, the stomach of each rat was removed, and then the sum total of the lengths of the ulcers was measured and compared with that measured for the control group, whereby the inhibition percentage was calculated.

| Molecule | Inhibition percentage [%] |
| --- | --- |
| DL-N^5 -(3-acetoxypropyl)-2-[β-(2-furyl)acrylamido]-N^1 -n-propylpentane-1,5-diamide [Test Compound 20] | 52 |
| DL-N^1,N^5-bis(3-acetoxypropyl)-2-[β-(2-furyl)acrylamido]pentane-1,5-diamide [Test Compound 19] | 40 |

same assay, conditions: Rattus norvegicus, ip; 50 mg/kg intraperitoneal; 1 h before Indomethacin 25 mg/kg p.o.; ulcer lengths after 5 h

| Molecule | inhibition in vivo at 50 mg/kg [%] |
| --- | --- |
| CCCNC(=O)C(CCC(N)=O)NC(=O)/C=C/c1ccco1 (stereo not shown) [compound 21] | 70.9 |
| CCCN(CCC)C(=O)[C@H](CCC(=O)N(C)C)NC(=O)CCCN1CCC(NC(=O)OCc2ccccc2)CC1 [compound 15] | 51 |
| CCCCNC(=O)CCC(NC(=O)/C=C/c1ccco1)C(=O)NCCCC (stereo not shown) [compound 17] | 32.1 |
| CCCN(CCC)C(=O)[C@H](CCC(=O)N(C)C)NC(=O)CCCN1CCN(c2ccccc2)CC1 [compound 14] | 52 |
| CCCN(CCC)C(=O)[C@H](CCC(=O)N(C)C)NC(=O)CCCN1CCN(C)CC1 [compound 12] | 47 |
| CCCN(CCC)C(=O)C(CCC(=O)O)NC(=O)c1ccccc1 (stereo not shown) [Proglumide, reference compound] | 0 |
| CCCNC(=O)C(CCC(=O)NCCCOC(C)=O)NC(=O)/C=C/c1ccco1 (stereo not shown) [compound 20] | 53.5 |
| CCCN(CCC)C(=O)[C@H](CCC(=O)N(C)C)NC(=O)CCCN1CCN(CC)CC1 [compound 13] | 55 |
| CCCN(CCC)C(=O)[C@H](CCC(=O)N(C)C)NC(=O)CCN1CCN(C)CC1 [compound 11] | 41 |
| CCCN(CCC)C(=O)[C@H](CCC(=O)N(C)C)NC(=O)CN1CCN(C)CC1 [compound 10] | 55 |
| CCCN(CCC)C(=O)[C@H](CCC(=O)N(C)C)NC(=O)C1CCC(CN)CC1 (stereo partly shown) [compound 9] | 59 |
| CC(C)CNC(=O)CCC(NC(=O)/C=C/c1ccco1)C(=O)NCC(C)C (stereo not shown) [compound 18] | 37.9 |
| CC(=O)OCCCNC(=O)CCC(NC(=O)/C=C/c1ccco1)C(=O)NCCCOC(C)=O (stereo not shown) [compound 19] | 53 |
| O=C(/C=C/c1ccco1)NC(CCC(=O)NCCCl)C(=O)NCCCl (stereo not shown) [compound 22] | 56 |
| CC(C)NC(=O)CCC(NC(=O)/C=C/c1ccco1)C(=O)NC(C)C (stereo not shown) [compound 23] | 52 |
| CCCN(CCC)C(=O)[C@H](CCC(=O)N(C)C)NC(=O)/C=C/C(=O)c1ccc(OC)c(OC)c1 [compound 16] | 59 |

system: Wistar strain rats; test: Anti-ulcer activity, Indomethacin-induced ulcers, oral (ED50); format: in vivo, Wistar strain rats (male); conditions: Rattus norvegicus, 1 h before Indomethacin 25 mg/kg p.o., ulcer lengths after 5 h, dose giving 50% of control
Description: On the other hand, Indomethacin alone was orally administered to a control group at the same dose.

| Molecule | ED50 [mg/kg] |
| --- | --- |
| CN(C)C(=O)CCC(NC(=O)/C=C/c1ccco1)C(=O)N(C)C (racemic) [Test Compound 3, DL-2-[β-(2-furyl)acrylamido]-N^1,N^1,N^5,N^5-tetramethyl-pentane-1,5-diamide] | 10.8 |
| CCCN(CCC)C(=O)C(CCC(=O)O)NC(=O)c1ccccc1 (stereo not shown) [Proglumide, reference compound] | 800 |
| CCCN(CCC)C(=O)C(CCC(=O)NC)NC(=O)/C=C/c1ccco1 (racemic) [Test Compound 1, DL-2-[β-(2-furyl)acrylamido]-N^5-methyl-N^1,N^1-di(n-propyl)pentane-1,5-diamide] | 6.6 |
| CCCN(CCC)C(=O)C(CCC(=O)N(C)C)NC(=O)/C=C/c1ccco1 (racemic) [Test Compound 2, DL-2-[β-(2-furyl)acrylamido]-N^5,N^5-dimethyl-N^1,N^1-di(n-propyl)-pentane-1,5-diamide] | 9 |

system: not listed separately; test: Acute toxicity, intraperitoneal; conditions: mouse, in vivo, ip
Protocol: Each of the compounds of the Test Compound Nos. 2, 3, 4, 5, 6, 17, 23, 30 and 31 was intraperitoneally administered to ddY strain mice (.male., body wt. 23±2 g, 10 mice per group), and the LD50 values were measured to find that all of them were 600 mg/kg or more.

| Molecule | LD50 [mg/kg] |
| --- | --- |
| CCCN(CCC)C(=O)C(CCC(=O)N(C)C)NC(=O)/C=C/c1cc2ccccc2o1 (racemic) [Test Compound 5, DL-2-[β-(2-benzofuryl)acrylamido]-N^5,N^5-dimethyl-N^1,N^1-di(n-propyl)-pentane-1,5-diamide] | ≥ 600 |

same assay, conditions: mouse, in vivo, ip; intraperitoneal, ddY male mice

| Molecule | LD50 [mg/kg] |
| --- | --- |
| CCCCNC(=O)CCC(NC(=O)/C=C/c1ccco1)C(=O)NCCCC (stereo not shown) [compound 17] | ≥ 600 |
| CN(C)C(=O)CCC(NC(=O)/C=C/c1ccco1)C(=O)N(C)C (racemic) [Test Compound 3, DL-2-[β-(2-furyl)acrylamido]-N^1,N^1,N^5,N^5-tetramethyl-pentane-1,5-diamide] | ≥ 600 |
| CCCCN(CCCC)C(=O)CCC(NC(=O)/C=C/c1ccco1)C(=O)N(CCCC)CCCC (stereo not shown) [compound 31] | ≥ 600 |
| CCCN(CCC)C(=O)CCC(NC(=O)/C=C/c1ccco1)C(=O)N(CCC)CCC (stereo not shown) [compound 30] | ≥ 600 |
| CCCN(CCC)C(=O)C(CCC(=O)N(C)C)NC(=O)/C=C/c1ccco1 (racemic) [Test Compound 2, DL-2-[β-(2-furyl)acrylamido]-N^5,N^5-dimethyl-N^1,N^1-di(n-propyl)-pentane-1,5-diamide] | ≥ 600 |
| CN(C)C(=O)CCC(NC(=O)/C=C/c1cc2ccccc2o1)C(=O)N(C)C (racemic) [Test Compound 4] | ≥ 600 |
| CC(C)NC(=O)CCC(NC(=O)/C=C/c1ccco1)C(=O)NC(C)C (stereo not shown) [compound 23] | ≥ 600 |
| CN(C)C(=O)CCC(NC(=O)/C=C/c1cc2ccccc2o1)C(=O)N1CCCCC1 (racemic) [Test Compound 6] | ≥ 600 |
